Data on one molecule can be found in patent US20190218226A1, “PRODRUGS OF ANTICANCER AGENTS INDOTECAN AND INDIMITECAN” (Purdue Research Foundation, priority 2016, published 2019).

One data set has as its system OVCAR-3. Nature of the data set: NCI60 antiproliferative screen, ovarian OVCAR-3. It counts as cell-based, human. To be noted: OVCAR-3, 48 h, sulforhodamine B; read-out: Cytotoxicity (GI50) Ovarian OVCAR-3. The procedure, abridged:
(§1)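 Cells were exposed to compounds at 100, 10, 1, 0.1 and 0.01 μM for 48 h, then stained with sulforhodamine B. Optical density relative to control was plotted as percentage growth versus log10 concentration, and GI50 was interpolated between the points bracketing 50% growth.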

The target in the next data set is T1, Human recombinant Top1 (Homo sapiens, UniProt P11387).
T1 construct: made in house
T1 sequence (P11387 1-765): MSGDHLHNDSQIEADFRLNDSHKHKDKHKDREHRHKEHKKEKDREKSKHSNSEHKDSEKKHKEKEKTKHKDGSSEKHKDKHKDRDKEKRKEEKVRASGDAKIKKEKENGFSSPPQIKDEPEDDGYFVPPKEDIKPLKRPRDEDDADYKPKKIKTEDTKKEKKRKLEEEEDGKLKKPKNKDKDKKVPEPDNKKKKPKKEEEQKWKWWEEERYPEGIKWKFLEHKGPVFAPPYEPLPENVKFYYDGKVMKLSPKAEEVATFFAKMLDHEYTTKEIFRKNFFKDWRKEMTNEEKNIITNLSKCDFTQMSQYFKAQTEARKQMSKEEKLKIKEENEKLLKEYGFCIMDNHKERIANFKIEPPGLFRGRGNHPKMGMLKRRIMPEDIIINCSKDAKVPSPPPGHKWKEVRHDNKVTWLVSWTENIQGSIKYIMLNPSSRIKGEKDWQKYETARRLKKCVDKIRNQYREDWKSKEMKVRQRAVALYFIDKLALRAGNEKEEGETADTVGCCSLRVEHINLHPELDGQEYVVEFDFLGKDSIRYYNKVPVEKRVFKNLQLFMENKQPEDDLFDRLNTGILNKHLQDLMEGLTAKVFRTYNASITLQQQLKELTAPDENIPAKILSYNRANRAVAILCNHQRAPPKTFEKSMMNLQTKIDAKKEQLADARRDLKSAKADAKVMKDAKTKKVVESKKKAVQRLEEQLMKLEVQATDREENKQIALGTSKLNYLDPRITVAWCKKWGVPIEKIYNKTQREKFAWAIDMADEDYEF
The experiment in a line: Top1-mediated DNA cleavage assay. It counts as biochemical. More on the design: key to Top 1 Cleavage: 0, no inhibitory activity; +, between 20 and 50% activities; ++, between 50 and 75% activity; +++, between 75 and 95% activity; ++++, equipotent. To be noted: graded relative to 1 μM camptothecin. The procedure, abridged:
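About 2 nM 3′-[32P]-labelled 117-bp DNA incubated with baculovirus-expressed recombinant Top1 at 25 °C for 20 min (Tris pH 7.5, KCl, MgCl2, EDTA, BSA) at four compound concentrations; stopped with 0.5% SDS. Denaturing 20% PAGE, phosphorimaging; cleavage scored semiquantitatively (0 to ++++) against reference compounds.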

A further data set has as its system HCT-116. Nature of the data set: NCI60 antiproliferative screen, colon HCT-116. Conditions: HCT-116, 48 h, sulforhodamine B; read-out: Cytotoxicity (GI50) Colon HCT-116. The format is cell-based, human. Put shortly:
as §1

The test system of data set [1] is all human cancer cell lines successfully tested (NCI60). Nature of the data set: NCI60 mean graph midpoint for growth inhibition. It counts as cell-based. To be noted: all human cancer cell lines successfully tested; ± standard error; read-out: MGM (mean graph midpoint for growth inhibition). The procedure, abridged:
as §1

As to `COC(=O)CCC(=O)Oc1cc2c(=O)n(CCCN3CCOCC3)c3c(c2cc1OC)C(=O)c1cc2c(cc1-3)OCO2` [Compound 17, 2-Methoxy-6-(3-morpholinopropyl)-5,12-dioxo-6,12-dihydro-5H-[1,3]dioxolo[4′,5′:5,6]indeno[1,2-c]isoquinolin-3-yl Methyl Succinate], the GI50 (as a rule, the concentration at which growth is held to half of that of the control) came out at 37 nM in the data set on OVCAR-3 and 20 nM in the data set with HCT-116. At Human recombinant Top1, the “Top 1 Cleavage” value stood at 0. The mean GI50 across NCI60 cell lines (MGM) in data set [1] was found to be 36 ± 18 nM.
